| Structure (SMILES) | melting point |
| --- | --- |
| CC(=O)N1CCC(c2ccccc2)c2cccc(CCN3CCN(c4nsc5ccccc45)CC3)c21 (stereo unspecified) | 97 °C |
| CN1CCN=C1N1CCNCC1 | 115 to 125 °C |
| COc1ccc(-c2ccnc(-c3cn(C)c(=O)n3-c3ccc(C(C)(C)C#N)cc3)c2)cc1 | 219 °C |
| CCOC(=O)c1cc(C(=O)OCC)n(C(C)c2ccccn2)n1 (stereo unspecified) | 63 to 65 °C |
| COC[C@H]1CN(c2ccc([C@H]3CC[C@H](OCSC)CC3)cc2)C(=O)O1 | 54 to 56 °C |
| CC1(COC2(C(F)(F)F)CN(C3CC3)C(=O)Nc3ccc(Cl)cc32)CC1 (stereo unspecified) | 166 to 167 °C |
| N#Cc1cc(Br)c(OC(=O)OCCl)c(Br)c1 | 83 to 85 °C |
| O=C(O)Cc1ccc(-c2ccc(C(CC3CCOCC3)c3ccc(S(=O)(=O)C4CC4)cc3)[nH]2)nc1 (stereo unspecified) | 124 to 127 °C |
| CC(C)NCC1(O)COc2ccc(O)cc2OC1 (stereo unspecified) | 108 to 110 °C |
| COc1cc2c(c(Cl)c1Cl)C(=O)C(C(C)C)C2 (stereo unspecified) | 118 to 119 °C |
| COC(=O)c1cc([N+](=O)[O-])c(O)c([N+](=O)[O-])c1 | 110 to 115 °C |
| CC1(C)CC2(CC(C)(C)c3ccc(Oc4ccc(N)cc4)cc32)c2cc(Oc3ccc(N)cc3)ccc21 | 214 to 215 °C |
| CCOc1cnc(C2=NC(=O)C(C)(C(C)C)N2)c(C(=O)O)c1 (stereo unspecified) | 140 to 144 °C |
| COc1c2c(cc3c1OCO3)C(OC(C)=O)CN(C)C2 (stereo unspecified) | 109 to 110 °C |
| O=C(CCC(=O)N1CCC(c2ccc(Cl)cc2)CC1)c1ccc2c(c1)CCN(C(=O)c1ccccc1)CC2 | 158 to 160 °C |
| COc1cc(NC(=O)Nc2ccc(N3CCN(C(=O)Nc4ccc(OCCO)cc4C(F)(F)F)CC3)cc2)cc(OC)c1 | 209 to 210 °C |
| COC(=O)c1cc(C(C)C)sc1NC(=O)Nc1ccc(C)cc1 | 49 to 51 °C |
| O=S(=O)(C(=CNc1cccc(NC=C(S(=O)(=O)c2ccccc2)S(=O)(=O)c2ccccc2)n1)S(=O)(=O)c1ccccc1)c1ccccc1 | 299 to 300 °C |
| O=C1C[C@H](C(=O)Nc2ccc(N3CCOCC3=O)cc2)N(C(=O)Nc2ccc(Cl)cc2)C1 | 154 °C |

Now from value to molecule:

| melting point | Structure (SMILES) |
| --- | --- |
| 234 to 235 °C | Cc1cc(C(=O)N2CCC3(CC2)CSC2=C(O3)c3ccccc3C(=O)C2=O)c(C)o1 |
| 84 to 86 °C | COCC1(O)CCN(c2c(F)cc([N+](=O)[O-])cc2F)CC1 |
| 136 to 138 °C | CN(Cc1ccccc1)C(=O)c1c(-c2ccncc2)c(-c2ccc(F)cc2)nn1CCO |
| 255 to 260 °C | CS(=O)(=O)OCCn1c2ccc(O)cc2c2c3c(c(-c4c(Cl)cccc4Cl)cc21)C(=O)NC3=O |
| 155 to 156 °C | Cc1oc(-c2ccccc2)nc1COc1ccc([N+](=O)[O-])cc1F |
| 118 to 119 °C | NCc1noc(-c2nn(Cc3ccccc3)c3ccccc23)n1 |
| 68 to 70 °C | O=c1c2c(oc3ccccc13)C=C2 |
| 74 to 77 °C | C=CC(C)(O)CN1CCC2(CC1)CSC1=C(O2)c2ccccc2C(=O)C1=O (stereo unspecified) |
| 193 °C | O=c1c(O)c(-c2ccccc2-c2ccc(CNc3nc(C(F)(F)F)nc4c3CCCC4)cc2)c1=O |
| 231 °C | O=C(Nc1ccc(Cl)c(C(F)(F)F)c1)c1ccccc1NCc1ccc(=O)[nH]c1 |
| 209 to 210 °C | O=[N+]([O-])c1ccc2c(c1)C(n1ccccc1=S)=CC(CF)(CF)O2 |
| 141 to 142 °C | O=C(Nc1ccc([C@@H]2[C@H]3COC(=O)[C@H]32)c(F)c1)OCc1ccccc1 |
| 209 to 210 °C | N=C(N)NC(=O)c1cc(-c2cccc(N)c2)nc2ccccc12 |
| 215 to 217 °C | O=C(O)c1ccc(NC(=O)c2ccccc2-c2ccccc2)nc1 |
| 165 to 168 °C | COc1cc2c(=O)c(C)cn3c4ccccc4c(c1)c23 |
| 111 to 113 °C | COc1ccc([C@@H]2Sc3ccccc3N(CCN(C)C)C(=O)[C@@H]2OC(=O)Nc2cccc(F)c2)cc1 (relative stereo) |
| 68 to 70 °C | OC(COc1cccc2ccccc12)CN1CCCC1 (stereo unspecified) |

Reference: a melting point compilation (Tetko et al.; mined from patent text by program, amines drawn as free bases though some values may be those of a salt)
